By IC50 is commonly meant the concentration needed to halve the response being measured. Low values mean higher potency, high ones lower potency. The term Km denotes the substrate concentration at which the rate is half of its maximum.

The text below walks through data of PMC12187869, “Transport of the uremic toxin symmetric dimethylarginine (SDMA) by renal transport proteins” (Amino Acids, 2025).

Type in all cases: cell-based
Assay [1] deals with T1, CAT1 (Homo sapiens, UniProt P30825).
T1 construct: gene SLC7A1; HEK293 cells stably expressing human CAT1
T1 sequence (P30825 whole entry): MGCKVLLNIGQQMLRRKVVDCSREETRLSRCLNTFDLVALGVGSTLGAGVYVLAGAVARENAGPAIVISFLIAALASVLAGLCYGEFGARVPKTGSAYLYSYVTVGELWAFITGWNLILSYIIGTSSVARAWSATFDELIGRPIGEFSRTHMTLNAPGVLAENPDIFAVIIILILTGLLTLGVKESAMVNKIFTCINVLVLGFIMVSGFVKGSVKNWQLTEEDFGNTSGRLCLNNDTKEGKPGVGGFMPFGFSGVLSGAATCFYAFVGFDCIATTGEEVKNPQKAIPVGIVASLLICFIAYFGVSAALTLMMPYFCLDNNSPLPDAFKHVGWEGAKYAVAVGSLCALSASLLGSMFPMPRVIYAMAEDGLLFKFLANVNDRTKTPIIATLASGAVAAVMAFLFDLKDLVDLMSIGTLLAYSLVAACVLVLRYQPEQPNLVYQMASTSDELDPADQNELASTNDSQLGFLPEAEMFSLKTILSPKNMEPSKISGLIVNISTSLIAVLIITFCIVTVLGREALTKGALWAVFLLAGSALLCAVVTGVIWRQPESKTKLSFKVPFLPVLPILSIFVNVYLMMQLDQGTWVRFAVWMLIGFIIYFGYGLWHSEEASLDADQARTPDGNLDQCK
Kind of assay: inhibition of [3H]SDMA uptake in HEK-CAT1 cells at […].

The target in assay [2] is T1, CAT1. The assay is described as follows: inhibition of [3H]SDMA uptake in HEK-CAT1 cells.
The target of assay [3] is T2, OATP4C1 (Homo sapiens, UniProt Q6ZQN7).
T2 construct: gene SLCO4C1; HEK293 cells stably expressing human OATP4C1
T2 sequence (Q6ZQN7 1-724): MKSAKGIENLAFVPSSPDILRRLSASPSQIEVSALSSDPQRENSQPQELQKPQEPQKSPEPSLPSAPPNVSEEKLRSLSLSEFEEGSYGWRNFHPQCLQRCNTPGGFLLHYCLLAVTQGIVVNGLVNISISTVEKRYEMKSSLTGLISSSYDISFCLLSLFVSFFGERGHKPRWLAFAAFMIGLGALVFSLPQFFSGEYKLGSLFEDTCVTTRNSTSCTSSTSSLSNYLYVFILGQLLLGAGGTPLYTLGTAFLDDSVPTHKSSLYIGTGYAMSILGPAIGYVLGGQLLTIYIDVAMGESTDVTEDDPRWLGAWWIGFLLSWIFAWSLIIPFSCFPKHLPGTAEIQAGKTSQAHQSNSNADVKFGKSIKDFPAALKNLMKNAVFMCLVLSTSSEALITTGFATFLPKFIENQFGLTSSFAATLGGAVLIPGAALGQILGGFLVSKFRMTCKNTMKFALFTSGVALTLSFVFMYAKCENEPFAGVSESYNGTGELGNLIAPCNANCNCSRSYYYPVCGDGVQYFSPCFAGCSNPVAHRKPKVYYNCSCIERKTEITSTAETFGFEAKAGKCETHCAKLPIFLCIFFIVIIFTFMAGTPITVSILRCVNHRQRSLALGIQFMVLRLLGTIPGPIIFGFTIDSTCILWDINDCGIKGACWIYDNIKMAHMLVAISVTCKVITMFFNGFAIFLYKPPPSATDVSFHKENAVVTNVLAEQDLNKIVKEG
The assay is described as follows: inhibition of [3H]SDMA uptake in HEK-OATP4C1 cells.

The target of assay [4] is T2, OATP4C1. Kind of assay: inhibition of [3H]SDMA uptake in HEK-OATP4C1 cells at […].
For a further assay, the target named is T3, OCT2 (Homo sapiens, UniProt O15244).
T3 construct: gene SLC22A2; HEK293 cells stably expressing human OCT2
T3 sequence (O15244 1-555): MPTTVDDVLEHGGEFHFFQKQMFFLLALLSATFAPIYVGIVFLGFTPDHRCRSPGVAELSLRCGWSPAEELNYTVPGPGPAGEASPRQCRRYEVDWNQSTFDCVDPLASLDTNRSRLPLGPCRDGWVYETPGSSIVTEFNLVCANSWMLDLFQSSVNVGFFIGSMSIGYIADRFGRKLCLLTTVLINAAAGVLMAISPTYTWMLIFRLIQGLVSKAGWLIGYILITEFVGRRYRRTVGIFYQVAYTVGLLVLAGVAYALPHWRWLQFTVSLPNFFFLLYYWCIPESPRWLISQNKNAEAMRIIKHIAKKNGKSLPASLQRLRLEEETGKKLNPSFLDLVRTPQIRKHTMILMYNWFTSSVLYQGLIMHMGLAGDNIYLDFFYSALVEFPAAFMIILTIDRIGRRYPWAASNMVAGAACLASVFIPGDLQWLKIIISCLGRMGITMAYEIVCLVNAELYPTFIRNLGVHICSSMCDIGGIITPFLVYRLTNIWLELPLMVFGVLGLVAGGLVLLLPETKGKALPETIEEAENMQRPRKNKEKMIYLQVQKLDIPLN
Kind of assay: [3H]SDMA uptake in HEK-OCT2 cells; no saturation up to […].

Another assay has as its target T4, MATE1 (Homo sapiens, UniProt Q96FL8).
T4 construct: gene SLC47A1; HEK293 cells stably expressing human MATE1
T4 sequence (Q96FL8 1-570): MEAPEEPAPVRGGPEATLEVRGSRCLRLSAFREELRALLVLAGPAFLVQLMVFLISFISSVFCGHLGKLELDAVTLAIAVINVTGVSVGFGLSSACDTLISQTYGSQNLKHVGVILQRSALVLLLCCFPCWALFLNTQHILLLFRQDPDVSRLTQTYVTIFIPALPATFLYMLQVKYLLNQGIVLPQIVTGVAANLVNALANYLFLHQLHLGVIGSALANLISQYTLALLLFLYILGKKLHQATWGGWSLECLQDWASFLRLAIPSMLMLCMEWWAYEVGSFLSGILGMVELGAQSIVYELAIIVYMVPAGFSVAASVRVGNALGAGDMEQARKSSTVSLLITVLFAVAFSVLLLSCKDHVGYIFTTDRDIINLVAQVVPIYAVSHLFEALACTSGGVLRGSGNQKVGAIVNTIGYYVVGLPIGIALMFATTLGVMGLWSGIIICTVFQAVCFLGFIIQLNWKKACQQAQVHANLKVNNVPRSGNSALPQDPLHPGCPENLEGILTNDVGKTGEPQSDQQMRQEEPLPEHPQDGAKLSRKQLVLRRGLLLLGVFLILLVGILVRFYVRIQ
Kind of assay: [3H]SDMA uptake kinetics (Km) in HEK-MATE1 cells. The note with it: read-out: Km in μM.

For `CN(C)C(=N)NCCC[C@H](N)C(=O)O` [ADMA], the “inhibition of [3H]SDMA uptake in HEK-CAT1 cells at 50 and 500 μM” value against CAT1 [1] is listed as “all influenced SDMA transport, thereby competing with SDMA for CAT1- or OATP4C1-mediated uptake”.

As for `N=C(N)NCCC[C@H](N)C(=O)O` [L-arginine], the values for the IC50 on CAT1 [2] and against OATP4C1 [3] were 280 µM and 28.8 µM, respectively.

In the case of `N=C(N)NCCCC[C@H](N)C(=O)O` [L-homoarginine], at OATP4C1 [4], the “inhibition of [3H]SDMA uptake in HEK-OATP4C1 cells at 50 and 500 μM” value is listed as “all influenced SDMA transport, thereby competing with SDMA for CAT1- or OATP4C1-mediated uptake”.

On to `CN=C(NC)NCCC[C@H](N)C(=O)O` [symmetric dimethylarginine], for which the “[3H]SDMA uptake in HEK-OCT2 cells; no saturation up to 4 000 μM” value on OCT2 is “significant uptake was observed for CAT1-, OATP4C1-, OCT2-, and MATE1-mediated transport”. Further, the Km on MATE1 is 1970 µM.
